# From ChEMBL document CHEMBL3739380, “Discovery of benzothiazoles as antimycobacterial agents: Synthesis, structure-activity relationships and binding studies with Mycobacterium tuberculosis decaprenylphosphoryl-β-D-ribose 2'-oxidase” (Bioorg Med Chem, 2015)
# The source made the active and inactive calls. No cut-off for these calls is given here.
# How the values were obtained:
# [1] = Intrinsic clearance in mouse liver microsomes; type: ADME; settings: read-out: CLH
# Cytochrome P450 2C9 = Cytochrome P450 2C9 (Homo sapiens, UniProt P11712); experiment: Inhibition of human recombinant CYP2C9 by fluorescence assay; type: ADME
# Chain of Cytochrome P450 2C9 (P11712 whole entry): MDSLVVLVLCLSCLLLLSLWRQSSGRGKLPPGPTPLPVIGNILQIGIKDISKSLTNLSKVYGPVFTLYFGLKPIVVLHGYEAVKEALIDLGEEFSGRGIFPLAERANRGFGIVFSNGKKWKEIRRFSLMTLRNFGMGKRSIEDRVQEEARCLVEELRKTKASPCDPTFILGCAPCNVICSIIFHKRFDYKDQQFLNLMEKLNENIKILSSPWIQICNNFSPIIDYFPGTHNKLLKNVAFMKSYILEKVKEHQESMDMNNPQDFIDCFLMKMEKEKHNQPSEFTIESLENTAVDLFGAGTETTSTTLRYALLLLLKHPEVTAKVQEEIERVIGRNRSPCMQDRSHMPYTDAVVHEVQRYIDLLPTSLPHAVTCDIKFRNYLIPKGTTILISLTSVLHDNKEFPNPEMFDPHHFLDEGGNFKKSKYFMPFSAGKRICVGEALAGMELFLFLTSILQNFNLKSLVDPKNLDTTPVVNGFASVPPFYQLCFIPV
# Cytochrome P450 1A2 = target: T1, Cytochrome P450 1A2 (Homo sapiens, UniProt P05177); experiment: Inhibition of human recombinant CYP1A2 by fluorescence assay; type: ADME
# T1 sequence (P05177 whole entry): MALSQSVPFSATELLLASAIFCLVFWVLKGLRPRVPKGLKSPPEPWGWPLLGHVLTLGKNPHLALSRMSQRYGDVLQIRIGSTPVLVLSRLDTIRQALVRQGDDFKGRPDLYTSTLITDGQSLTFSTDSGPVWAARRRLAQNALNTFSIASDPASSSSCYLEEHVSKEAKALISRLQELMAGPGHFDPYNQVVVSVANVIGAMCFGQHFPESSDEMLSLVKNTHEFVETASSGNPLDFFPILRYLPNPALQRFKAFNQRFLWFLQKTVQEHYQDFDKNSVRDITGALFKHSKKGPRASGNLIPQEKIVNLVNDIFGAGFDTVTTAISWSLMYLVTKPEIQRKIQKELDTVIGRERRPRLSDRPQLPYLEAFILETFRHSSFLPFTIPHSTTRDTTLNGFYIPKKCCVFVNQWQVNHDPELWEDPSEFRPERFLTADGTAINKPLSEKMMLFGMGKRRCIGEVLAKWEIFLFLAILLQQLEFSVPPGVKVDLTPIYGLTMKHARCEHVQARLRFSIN
# [2] = Aqueous solubility of the compound; type: physicochemical; settings: buffer
# [3] = Clearance in iv dosed mouse; type: ADME, organism-based; settings: in vivo
# [4] = AUC100 in po dosed mouse; type: ADME, organism-based; settings: in vivo
# Cytochrome P450 2C19 = Cytochrome P450 2C19 (Homo sapiens, UniProt P33261); experiment: Inhibition of human recombinant CYP2C19 by fluorescence assay; type: ADME
# Chain of Cytochrome P450 2C19 (P33261 whole entry): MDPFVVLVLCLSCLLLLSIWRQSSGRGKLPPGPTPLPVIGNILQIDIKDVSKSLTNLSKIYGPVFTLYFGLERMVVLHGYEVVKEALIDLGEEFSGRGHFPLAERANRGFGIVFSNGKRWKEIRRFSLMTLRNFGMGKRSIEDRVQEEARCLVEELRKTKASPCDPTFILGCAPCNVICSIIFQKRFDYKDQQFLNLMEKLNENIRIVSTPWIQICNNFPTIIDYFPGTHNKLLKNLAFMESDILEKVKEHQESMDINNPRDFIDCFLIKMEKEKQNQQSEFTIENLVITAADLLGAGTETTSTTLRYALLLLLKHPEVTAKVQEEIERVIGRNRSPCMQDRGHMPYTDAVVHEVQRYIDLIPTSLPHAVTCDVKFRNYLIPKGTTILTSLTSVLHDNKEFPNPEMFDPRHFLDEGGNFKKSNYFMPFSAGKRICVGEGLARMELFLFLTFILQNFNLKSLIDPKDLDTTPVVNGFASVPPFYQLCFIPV
# A549 = experiment: Cytotoxicity against human A549 cells after 72 hrs by fluorescence assay; type: cell-based; settings: A549, 72 h
# Salmonella typhimurium [5] = experiment: Genotoxicity in Salmonella typhimurium TA100 at 5000 ug/plate by Ames test in presence of S9 fraction; type: toxicity, organism-based; settings: salmonella enterica subsp. enterica serovar typhimurium
# Salmonella typhimurium [6] = experiment: Genotoxicity in Salmonella typhimurium TA98 at 5000 ug/plate by Ames test in presence of S9 fraction; type: toxicity, organism-based; settings: salmonella enterica subsp. enterica serovar typhimurium
# [7] = Intrinsic clearance in human liver microsomes; type: ADME; settings: read-out: CLH
# [8] = tested on: Mycobacterium tuberculosis; experiment: Antimycobacterial activity against Mycobacterium tuberculosis H37Rv ATCC 27294 after 5 days by microdilution method; type: functional; settings: H37Rv ATCC 27294, 120 h
# Salmonella typhimurium [9] = experiment: Genotoxicity in Salmonella typhimurium TA100 at 5000 ug/plate by Ames test in absence of S9 fraction; type: toxicity, organism-based; settings: salmonella enterica subsp. enterica serovar typhimurium
# Cytochrome P450 2D6 = Cytochrome P450 2D6 (Homo sapiens, UniProt P10635); experiment: Inhibition of human recombinant CYP2D6 by fluorescence assay; type: ADME
# Chain of Cytochrome P450 2D6 (P10635 whole entry): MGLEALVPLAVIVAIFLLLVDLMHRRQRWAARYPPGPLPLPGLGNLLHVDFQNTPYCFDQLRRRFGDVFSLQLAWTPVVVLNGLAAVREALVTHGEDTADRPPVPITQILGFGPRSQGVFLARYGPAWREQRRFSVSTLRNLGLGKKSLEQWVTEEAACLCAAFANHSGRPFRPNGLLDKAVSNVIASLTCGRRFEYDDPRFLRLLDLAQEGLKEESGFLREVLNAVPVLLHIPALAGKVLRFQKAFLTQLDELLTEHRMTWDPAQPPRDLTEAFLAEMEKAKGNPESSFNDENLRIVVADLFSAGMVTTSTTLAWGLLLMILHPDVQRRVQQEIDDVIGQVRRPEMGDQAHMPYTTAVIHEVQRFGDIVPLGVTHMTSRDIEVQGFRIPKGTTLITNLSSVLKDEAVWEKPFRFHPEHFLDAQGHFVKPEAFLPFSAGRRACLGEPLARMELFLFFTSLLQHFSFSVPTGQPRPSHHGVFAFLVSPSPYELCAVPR
# [10] = Fraction unbound in mouse plasma protein; type: ADME, cell-free
# [11] = Volume of distribution at steady state in mouse; type: ADME, organism-based; settings: in vivo, read-out: Vdss
# [12] = Oral bioavailability in mouse; type: ADME, organism-based; settings: in vivo
# Salmonella typhimurium [13] = experiment: Genotoxicity in Salmonella typhimurium TA98 at 5000 ug/plate by Ames test in absence of S9 fraction; type: toxicity, organism-based; settings: salmonella enterica subsp. enterica serovar typhimurium
# Cytochrome P450 3A4 = Cytochrome P450 3A4 (Homo sapiens, UniProt P08684); experiment: Inhibition of human recombinant CYP3A4 by fluorescence assay; type: ADME
# Chain of Cytochrome P450 3A4 (P08684 whole entry): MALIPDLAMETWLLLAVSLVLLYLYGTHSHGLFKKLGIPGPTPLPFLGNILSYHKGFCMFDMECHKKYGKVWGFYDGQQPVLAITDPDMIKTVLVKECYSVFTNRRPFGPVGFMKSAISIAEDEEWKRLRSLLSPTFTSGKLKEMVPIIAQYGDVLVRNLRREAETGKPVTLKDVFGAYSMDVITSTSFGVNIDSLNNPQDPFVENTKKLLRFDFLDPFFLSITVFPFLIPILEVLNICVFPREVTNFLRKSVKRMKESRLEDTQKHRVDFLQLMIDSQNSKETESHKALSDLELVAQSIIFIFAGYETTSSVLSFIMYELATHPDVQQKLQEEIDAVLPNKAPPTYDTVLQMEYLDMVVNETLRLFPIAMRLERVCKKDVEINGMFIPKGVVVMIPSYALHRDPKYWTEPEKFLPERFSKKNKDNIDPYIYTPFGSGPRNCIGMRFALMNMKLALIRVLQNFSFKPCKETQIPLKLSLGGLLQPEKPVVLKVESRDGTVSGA
# [14] = Inhibition of Mycobacterium tuberculosis DprE1 using farnesyl-phosphoryl-beta-D-ribofuranose as substrate preincubated for 30 mins before substrate addition by peroxidase coupled assay
# [15] = tested on: Mycobacterium tuberculosis; experiment: Antimycobacterial activity against Mycobacterium tuberculosis H37Rv ATCC 27294 after 2 to 3 weeks by turbidity assay; type: functional
# Salmonella typhimurium [16] = experiment: Genotoxicity in Salmonella typhimurium TA98 at 1600 ug/plate by Ames test in presence of S9 fraction; type: toxicity, organism-based; settings: salmonella enterica subsp. enterica serovar typhimurium
# Salmonella typhimurium [17] = experiment: Genotoxicity in Salmonella typhimurium TA100 at 16 ug/plate by Ames test in absence of S9 fraction; type: toxicity, organism-based; settings: salmonella enterica subsp. enterica serovar typhimurium
# Salmonella typhimurium [18] = experiment: Genotoxicity in Salmonella typhimurium TA100 at 16 ug/plate by Ames test in presence of S9 fraction; type: toxicity, organism-based; settings: salmonella enterica subsp. enterica serovar typhimurium
# Salmonella typhimurium [19] = experiment: Genotoxicity in Salmonella typhimurium TA98 at 1600 ug/plate by Ames test in absence of S9 fraction; type: toxicity, organism-based; settings: salmonella enterica subsp. enterica serovar typhimurium
# Salmonella typhimurium [20] = experiment: Genotoxicity in Salmonella typhimurium TA98 at 50 ug/plate by Ames test in absence of S9 fraction; type: toxicity, organism-based; settings: salmonella enterica subsp. enterica serovar typhimurium
# Salmonella typhimurium [21] = experiment: Genotoxicity in Salmonella typhimurium TA98 at 50 ug/plate by Ames test in presence of S9 fraction; type: toxicity, organism-based; settings: salmonella enterica subsp. enterica serovar typhimurium
# Salmonella typhimurium [22] = experiment: Genotoxicity in Salmonella typhimurium TA100 at 50 ug/plate by Ames test in absence of S9 fraction; type: toxicity, organism-based; settings: salmonella enterica subsp. enterica serovar typhimurium
# [23] = tested on: Mycobacterium tuberculosis; experiment: Antimycobacterial activity against Mycobacterium tuberculosis H37Rv ATCC 27294 assessed as log reduction CFU after 7 days by killing kinetic assay; type: functional
# Salmonella typhimurium [24] = experiment: Genotoxicity in Salmonella typhimurium TA98 at 160 ug/plate by Ames test in absence of S9 fraction; type: toxicity, organism-based; settings: salmonella enterica subsp. enterica serovar typhimurium
# [25] = tested on: Mycobacterium tuberculosis; experiment: Binding affinity to N-terminal His-tagged Mycobacterium tuberculosis DprE1 assessed as molecular weight shift due to semimercaptal covalent DprE1 adduct formation at 400 uM incubated for 5 hrs in presence of FAD and FPR by deconvoluted mass spectrometry
structure (smiles),measurement,setting,value
Cc1c(C(F)(F)F)cc2nc(C3=N[C@H](C(=O)N4CCCC4)CO3)sc2c1[N+](=O)[O-],microsomal CLint,[1],37.9 µL/min/mg
same,IC50,Cytochrome P450 2C9; read-out: IC50,22.1 µM
same,IC50,Cytochrome P450 1A2,> 100 µM
same,solubility,[2],12 µM
same,clearance,[3],83.5 mL/min/kg
same,AUC,[4],10200 ng·h/mL
same,IC50,Cytochrome P450 2C19,73.5 µM
same,IC50,A549,> 100 µM
same,Activity,Salmonella typhimurium [5],Non-toxic
same,Activity,Salmonella typhimurium [6],Non-toxic
same,microsomal CLint,[7],9.6 µL/min/mg
same,MIC,[8],2 µg/mL
same,Activity,Salmonella typhimurium [9],Non-toxic
same,IC50,Cytochrome P450 2D6,> 100 µM
same,fraction unbound,[10],0.063
same,Vd,[11],3.5 L/kg
same,bioavailability,[12],22.5%
same,Activity,Salmonella typhimurium [13],Non-toxic
same,IC50,Cytochrome P450 3A4,> 100 µM
same,IC50,[14],1200 nM
O=C(c1nc2cc(C(F)(F)F)cc(-[n+]3cc([O-])on3)c2s1)N1CCCCC1,MIC,[8],32 µg/mL
same,IC50,[14],28200 nM
CNC(=O)c1cc([N+](=O)[O-])c2sc(C(=O)N3CCCCC3)nc2c1,MIC,[8],32 µg/mL
same,IC50,[14],53000 nM
COCCN1CCN(C(=O)c2nc3cc(C(F)(F)F)c(C)c([N+](=O)[O-])c3s2)CC1,microsomal CLint,[1],< 4 µL/min/mg
same,IC50,Cytochrome P450 2C9,Not Active
same,IC50,Cytochrome P450 1A2,9.56 µM
same,solubility,[2],73 µM
same,MIC,[15],2 µg/mL
same,clearance,[3],146 mL/min/kg
same,AUC,[4],570 ng·h/mL
same,IC50,Cytochrome P450 2C19,64.9 µM
same,IC50,A549,100 µM
same,Activity,Salmonella typhimurium [5],Non-toxic
same,Activity,Salmonella typhimurium [6],Non-toxic
same,MIC,[8],2 µg/mL
same,Activity,Salmonella typhimurium [9],Non-toxic
same,IC50,Cytochrome P450 2D6,58.6 µM
same,fraction unbound,[10],0.043
same,Vd,[11],24.5 L/kg
same,Activity,Salmonella typhimurium [13],Non-toxic
same,IC50,Cytochrome P450 3A4,95 µM
same,IC50,[14],1700 nM
O=C([C@@H]1COC(c2nc3cc(C(F)(F)F)cc([N+](=O)[O-])c3s2)=N1)N1CCCC1,microsomal CLint,[1],76.6 µL/min/mg
same,IC50,Cytochrome P450 2C9; read-out: IC50,12.4 µM
same,IC50,Cytochrome P450 1A2,53.1 µM
same,solubility,[2],64.6 µM
same,clearance,[3],49 mL/min/kg
same,AUC,[4],9180 ng·h/mL
same,IC50,Cytochrome P450 2C19,24.2 µM
same,IC50,A549,82 µM
same,microsomal CLint,[7],5.3 µL/min/mg
same,MIC,[8],1.4 µg/mL
same,Activity,Salmonella typhimurium [16],Toxic
same,IC50,Cytochrome P450 2D6,3.4 µM
same,fraction unbound,[10],0.06
same,Vd,[11],1.44 L/kg
same,Activity,Salmonella typhimurium [17],Toxic
same,bioavailability,[12],27%
same,Activity,Salmonella typhimurium [18],Toxic
same,IC50,Cytochrome P450 3A4,18.6 µM
same,IC50,[14],654 nM
same,Activity,Salmonella typhimurium [19],Toxic
O=C(NCc1ccccn1)c1nc2cc(C(F)(F)F)ccc2s1,MIC,[8],> 32 µg/mL
same,IC50,[14],> 100000 nM
O=C(c1nc2cc(C(F)(F)F)cc(B(O)O)c2s1)N1CCCCC1,MIC,[8],> 32 µg/mL
COCCN1CCN(C(=O)c2sc3c([N+](=O)[O-])cc(C(F)(F)F)cc3[n+]2[O-])CC1,Activity,Salmonella typhimurium [20],Toxic
same,Activity,Salmonella typhimurium [21],Toxic
same,MIC,[8],0.03 µg/mL
same,Activity,Salmonella typhimurium [18],Toxic
same,IC50,[14],27 nM
same,Activity,Salmonella typhimurium [22],Toxic
Cc1c(C(F)(F)F)cc2nc(C(=O)NCc3ccccn3)sc2c1[N+](=O)[O-],MIC,[8],0.3 µg/mL
same,IC50,[14],1200 nM
Cc1c(C(F)(F)F)cc2nc(C3=NCCO3)sc2c1[N+](=O)[O-],Activity,Salmonella typhimurium [5],Non-toxic
same,Activity,Salmonella typhimurium [6],Non-toxic
same,MIC,[8],8 µg/mL
same,Activity,Salmonella typhimurium [9],Non-toxic
same,Activity,Salmonella typhimurium [13],Non-toxic
same,IC50,[14],3900 nM
O=C(c1nc2cc(C(F)(F)F)cc([N+](=O)[O-])c2s1)N1CCOCC1,MIC,[8],0.1 µg/mL
same,IC50,[14],300 nM
O=C(NCc1ccccn1)c1sc2c([N+](=O)[O-])cc(C(F)(F)F)cc2[n+]1[O-],MIC,[15],0.01 µg/mL
same,Activity,[23],2.5 log10CFU/ml
same,MIC,[8],0.02 µg/mL
same,IC50,[14],26 nM
O=[N+]([O-])c1cc(C(F)(F)F)cc2c1sc(C1=NCCO1)[n+]2[O-],Activity,Salmonella typhimurium [24],Toxic
same,Activity,Salmonella typhimurium [21],Toxic
same,MIC,[8],0.4 µg/mL
same,Activity,Salmonella typhimurium [18],Toxic
same,IC50,[14],276 nM
same,Activity,Salmonella typhimurium [22],Toxic
O=C(NCc1cccnc1)c1sc2c([N+](=O)[O-])cc(C(F)(F)F)cc2[n+]1[O-],MIC,[8],0.03 µg/mL
same,Activity,[25],Active
